From patent publication US8067613B2 (Abbott Laboratories, priority 2007, dated 2011)

Molecular target: T1, Recombinant Human Poly(ADP-Ribose)Polymerase (PARP), PARP-1 (Homo sapiens, UniProt P09874)
T1 construct: purchased Trevigen (Gaithersburg, Md.); host or cells: E. coli
Test: PARP1 assay (SPA/FlashPlate, [3H]-NAD+ incorporation into biotinylated histone H1)
Assay type: biochemical
Settings: 1 nM PARP enzyme, 1.5 μM [3H]-NAD+, 200 nM biotinylated histone H1, 200 nM slDNA; Ki from inhibition curves at various substrate concentrations
Method: Nicotinamide[2,5′,8-3H]adenine dinucleotide and strepavidin SPA beads were obtained from Amersham Biosiences (UK). Recombinant Human Poly(ADP-Ribose)Polymerase (PARP), purified from E. coli and 6-Biotin-17-NAD^+, were obtained from Trevigen (Gaithersburg, Md.). NAD^+, histone, aminobenzamide, 3-aminobenzamide and Calf Thymus DNA (dcDNA) were obtained from Sigma (St. Louis, Mo.). Stem loop oligonucleotide containing MCAT sequence was obtained from Qiagen. The oligos were dissolved to 1 mM in annealing buffer containing 10 mM Tris HCl (pH 7.5), 1 mM EDTA, and 50 mM NaCl, incubated for 5 minutes at 95° C. and annealed at 45° C. for 45 minutes. Histone H1 (95% electrophoretically pure) was obtained from Roche (Indianapolis, Ind. Biotinylated histone H1 was prepared by treating the protein with Sulfo-NHS-LC-Biotin (Pierce Rockford, Ill.). The biotinylation reaction was conducted by slowly and intermittently adding 3 equivalents of 10 mM Sulfo-NHS-LC-Biotin to 100 μM Histone H1 in phosphate-buffered saline, pH 7.5, at 4° C. with gentle vortexing over 1 minute then incubation at 4° C. for 1 hour. Streptavidin coated (FlashPlate Plus) microplates were obtained from Perkin Elmer (Boston, Mass.).
PARP1 assay was conducted in PARP assay buffer containing 50 mM tris (pH 8.0), 1 mM DTT and 4 mM MgCl2. PARP reactions contained 1.5 μM [^3H]-NAD^+ (1.6 μCi/mmol), 200 nM biotinylated histone H1, 200 nM slDNA, and 1 nM PARP enzyme. Auto reactions utilizing SPA bead-based detection were carried out in 100 μL volumes in white 96 well plates.
Reactions were initiated by adding 50 μL of 2×NAD^+ substrate mixture to 50 μL of 2× enzyme mixture containing PARP and DNA. These reactions were terminated by the addition of 150 μL of 1.5 mM benzamide (1000-fold over its IC50). 170 μL of the stopped reaction mixtures were transferred to streptavidin Flash Plates, incubated for 1 hour and counted using a TopCount microplate scintillation counter. The Ki data (in nM) for representative compounds of this invention were determined from inhibition curves at various substrate concentrations and are shown in TABLE 1.

T1 sequence (P09874 whole entry): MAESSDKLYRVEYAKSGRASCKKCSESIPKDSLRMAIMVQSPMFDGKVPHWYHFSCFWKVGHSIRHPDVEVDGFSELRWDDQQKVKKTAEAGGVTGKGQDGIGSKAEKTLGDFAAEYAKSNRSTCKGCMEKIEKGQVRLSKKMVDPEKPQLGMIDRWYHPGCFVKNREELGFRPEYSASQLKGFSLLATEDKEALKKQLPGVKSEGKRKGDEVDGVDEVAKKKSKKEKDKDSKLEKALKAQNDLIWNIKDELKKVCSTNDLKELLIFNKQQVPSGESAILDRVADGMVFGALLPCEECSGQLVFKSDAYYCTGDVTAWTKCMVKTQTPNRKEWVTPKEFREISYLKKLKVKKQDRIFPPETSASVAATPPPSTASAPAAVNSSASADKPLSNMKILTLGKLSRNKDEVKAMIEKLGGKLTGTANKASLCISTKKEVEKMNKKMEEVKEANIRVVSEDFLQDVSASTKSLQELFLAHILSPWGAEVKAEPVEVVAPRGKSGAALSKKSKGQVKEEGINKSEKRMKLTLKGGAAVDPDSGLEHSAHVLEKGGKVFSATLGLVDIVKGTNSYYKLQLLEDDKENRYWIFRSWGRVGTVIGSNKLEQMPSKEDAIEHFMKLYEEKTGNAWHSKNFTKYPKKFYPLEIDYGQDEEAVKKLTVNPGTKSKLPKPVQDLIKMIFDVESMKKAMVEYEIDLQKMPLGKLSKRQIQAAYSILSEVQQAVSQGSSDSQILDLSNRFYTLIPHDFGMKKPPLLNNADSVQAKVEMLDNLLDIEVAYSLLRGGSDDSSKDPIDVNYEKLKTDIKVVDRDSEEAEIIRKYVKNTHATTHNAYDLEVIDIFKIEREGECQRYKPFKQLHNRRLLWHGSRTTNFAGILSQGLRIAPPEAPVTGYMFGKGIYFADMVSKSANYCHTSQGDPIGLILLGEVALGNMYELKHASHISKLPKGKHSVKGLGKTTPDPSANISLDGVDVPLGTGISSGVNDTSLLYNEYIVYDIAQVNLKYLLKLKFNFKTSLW

| Compound | Ki |
| --- | --- |
| NC(=O)c1cccc2[nH]c(-c3ccc(C4CCCN4)nc3)nc12 (stereo not drawn) [Example 43, 2-(6-pyrrolidin-2-ylpyridin-3-yl)-1H-benzimidazole-4-carboxamide] | 0.003 µM |
| CC(C)N1CCCC1c1ccc(-c2nc3c(C(N)=O)cccc3[nH]2)cn1 (stereo not drawn) [Example 44, 2-[6-(1-isopropylpyrrolidin-2-yl)pyridin-3-yl]-1H-benzimidazole-4-carboxamide] | 0.041 µM |
| CC(C)CN1CCCC1c1ccc(-c2nc3c(C(N)=O)cccc3[nH]2)cn1 (stereo not drawn) [Example 45, 2-[6-(1-isobutylpyrrolidin-2-yl),pyridin-3-yl]-1H-benzimidazole-4-carboxamide] | 0.011 µM |
| NC(=O)c1cccc2[nH]c(-c3ccc(C4CCCN4C4CCOCC4)nc3)nc12 (stereo not drawn) [Example 49, 2-[6-(1-tetrahydro-2H-pyran-4-ylpyrrolidin-2-yl),pyridin-3-yl]-1H-benzimidazole-4-carboxamide] | 0.017 µM |
| NC(=O)c1cccc2[nH]c(-c3ccc(-c4cnco4)nc3)nc12 [Example 50, 2-[6-(1,3-oxazol-5-yl)pyridin-3-yl]-1H-benzimidazole-4-carboxamide] | 0.0008 µM |
| NC(=O)c1cccc2[nH]c(-c3ccc(-c4nnco4)cn3)nc12 [Example 51, 2-[5-(1,3,4-oxadiazol-2-yl)pyridin-2-yl]-1H-benzimidazole-4-carboxamide] | 0.0018 µM |
| NC(=O)c1cccc2[nH]c(-c3ccc(-c4nnc(C(F)(F)F)o4)cn3)nc12 [Example 52, 2-{5-[5-(trifluoromethyl)-1,3,4-oxadiazol-2-yl]pyridin-2-yl}-1H-benzimidazole-4-carboxamide] | 0.014 µM |
| Cc1nnc(-c2ccc(-c3nc4c(C(N)=O)cccc4[nH]3)nc2)o1 [Example 53, 2-[5-(5-methyl-1,3,4-oxadiazol-2-yl)pyridin-2-yl]-1H-benzimidazole-4-carboxamide] | 0.317 µM |

Now from value to compound:

| Ki | Compound |
| --- | --- |
| 0.011 µM | CC(C)CN1CCCC1c1ccc(-c2nc3c(C(N)=O)cccc3[nH]2)s1 (stereo not drawn) [Example 39, 2-(5-(1-isobutylpyrrolidin-2-yl)thien-2-yl)-1H-benzimidazole-4-carboxamide] |
| 0.01 µM | NC(=O)c1cccc2[nH]c(-c3ccc(C4CCCN4C4CCC4)s3)nc12 (stereo not drawn) [Example 40, 2-(5-(1-cyclobutylpyrrolidin-2-yl)thien-2-yl)-1H-benzimidazole-4-carboxamide] |
| 0.005 µM | NC(=O)c1cccc2[nH]c(-c3ccc(C4CCCN4C4CCCC4)s3)nc12 (stereo not drawn) [Example 41, 2-(5-(1-cyclopentylpyrrolidin-2-yl)thien-2-yl)-1H-benzimidazole-4-carboxamide] |
| 0.012 µM | NC(=O)c1cccc2[nH]c(-c3ccc(C4CCCN4C4CCCCC4)s3)nc12 (stereo not drawn) [Example 42, 2-(5-(1-cyclohexylpyrrolidin-2-yl)thien-2-yl)-1H-benzimidazole-4-carboxamide] |
| 0.017 µM | NC(=O)c1cccc2[nH]c(-c3ccc(C4CCCN4C4CCC4)nc3)nc12 (stereo not drawn) [Example 46, 2-[6-(1-cyclobutylpyrrolidin-2-yl),pyridin-3-yl]-1H-benzimidazole-4-carboxamide] |
| 0.014 µM | NC(=O)c1cccc2[nH]c(-c3ccc(C4CCCN4C4CCCC4)nc3)nc12 (stereo not drawn) [Example 47, 2-[6-(1-cyclopentylpyrrolidin-2-yl),pyridin-3-yl]-1H-benzimidazole-4-carboxamide] |
| 0.014 µM | NC(=O)c1cccc2[nH]c(-c3ccc(C4CCCN4C4CCCCC4)nc3)nc12 (stereo not drawn) [Example 48, 2-[6-(1-cyclohexylpyrrolidin-2-yl),pyridin-3-yl]-1H-benzimidazole-4-carboxamide] |
